Here are results for ten molecules from patent US11311553B1, “Methods of treating 4-repeat tauopathies” (priority 2020, dated 2022).

In one series the test system is PSP. The note with it: literature clinical trials in PSP patients; cited from earlier work.
For series [1], the system named is subjects with probable or possible PSP. In words: Fasudil treatment of subjects with probable or possible PSP, assessed at baseline, six months and one year. In kind it is in vivo, human. The following applies: fasudil 180 mg/day (60 mg tid).
The conditions of series [2]: 1-hydroxy (M3) metabolite formed in vivo; cited from earlier work.

Turning to `CC[C@H](C)[C@H](NC(=O)[C@H](CO)NC(=O)[C@@H](NC(=O)[C@@H]1CCCN1C(=O)[C@H](C)NC(=O)[C@@H](N)CC(N)=O)C(C)C)C(=O)N1CCC[C@H]1C(=O)N[C@@H](CCC(N)=O)C(=O)O` [Davunetide], in the series with PSP, the “clinical effect / benefit in PSP” value is on record as “not shown not to be effective”.

For `O=C(Oc1ccccc1C(=O)O)c1ccccc1O` [Salsalate], the “clinical effect / benefit in PSP” value in the series on PSP was “failed”.

With `Nc1nc2ccc(OC(F)(F)F)cc2s1` [riluzole], the “clinical effect / benefit in PSP” value in the series on PSP is on record as “failed to demonstrate effects”.

Take `O=c1sn(-c2cccc3ccccc23)c(=O)n1Cc1ccccc1` [tideglusib]: in the series with PSP, the “clinical effect / benefit in PSP” value is on record as “failed to show benefit”.

In the case of `COC1=C(OC)C(=O)C(C/C=C(\C)CC/C=C(\C)CC/C=C(\C)CC/C=C(\C)CC/C=C(\C)CC/C=C(\C)CC/C=C(\C)CC/C=C(\C)CC/C=C(\C)CCC=C(C)C)=C(C)C1=O` [coenzyme Q10], the “clinical effect / benefit in PSP” value in the series on PSP was “failed to provide benefit”.

Consider `Cl.O=S(=O)(c1cccc2cnccc12)N1CCCNCC1` [fasudil, Hexahydro-1-(5-isoquinolinesulfonyl)-1H-1,4-diazepine monohydrochloride hemihydrate], for which, in series [1], the Oculomotor parameters result is given as “improve” and the sleep parameters result is “improve”.

Consider `C=CC1O[C@H]2C[C@H]3OC[C@@]3(OC(C)=O)[C@H]3[C@H](OC(=O)c4ccccc4)[C@]4(O)C[C@H](OC(=O)[C@H](O)[C@H](CC(C)C)NC(=O)OC(C)(C)C)C(C)=C([C@H](OC(C)=O)[C@H](O1)[C@]23C)C4(C)C` (some centres unmarked) [TPI 287], for which the “clinical effect / benefit in PSP” value in the series on PSP was “failed to show any effect”.

As to `O=S(=O)(c1cccc2c(O)nccc12)N1CCCNCC1` [M3, hydroxyfasudil], the half-life result in series [2] is recorded as “about 8 hours”.

B1: Gosuranemab: a humanized monoclonal antibody that targets N-terminal tau (antibody, chains of the INN, looked up, V domains shown)
VH: EVHLVESGGALVKPGGSLRLSCAASGFSFSKYGMSWVRQAPGKGLEWVATISSSGSRTYYPDSVKGRFTISRDNAKNTLYLQMNSLRAEDTAMYYCSISWDGAMDYWGQGTTVTVSS
VL: DVVMTQSPLSLPVTLGQPASISCKSSQSIVHSNGNTYLEWYLQKPGQSPQLLVYKVSNRFSGVPDRFSGSGSGTDFTLKISRVEAEDVGTYYCFQGSLVPWAFGGGTKVEIK
Turning to B1, in the series with PSP, the “clinical effect / benefit in PSP” value was “no effect”.

B2: ABBV-8E12: humanized anti-tau monoclonal antibody (antibody, chains of the INN, looked up, V domains shown)
VH: EVKVVESGGGLVQPGGSMKLSCVVSGFTFSNYWVNWVRQAPGKGLEWVAQIRLKSDNYATHYEESVKGRFTISRDDSKSSVYLQMNNLRAEDSGIYYCTNWEDYWGQGTTVTVSS
VL: DIVLTQSPDSLAVSLGERATISCRASQSVSTSRYSYIHWYQQKPGQPPKLLIKYASNLESGVPSRFSGSGSGTDFTLNIHPLEPEDFATYYCHHSWEIPLTFGQGTKLEIK
Take B2: the “clinical effect / benefit in PSP” value in the series on PSP is on record as “failed to demonstrate an effect”.
